From ChEMBL document CHEMBL3526027, “Pharmacokinetics, metabolism, and excretion of the antidiabetic agent ertugliflozin (PF-04971729) in healthy male subjects” (Drug Metab Dispos, 2013)

Legend:
[1] = system: Plasma; experiment: Drug level in Sprague-Dawley rat plasma treated with [14C]-ertugliflozin at 25 mg/kg, po; type: ADME, organism-based; set-up: dose 25 mg/kg, route oral; details: in vivo
[2] = Drug level in bile duct-cannulated rat bile treated with [14C]-ertugliflozin at 25 mg/kg, po; type: ADME, organism-based; set-up: dose 25 mg/kg, route oral; details: in vivo
[3] = system: Liver microsome; experiment: Metabolic stability in human liver microsomes assessed as retention time treated with 10 µM ertugliflozin by HPLC analysis
[4] = system: Homo sapiens; experiment: Total drug excretion in healthy human treated with [14C]-ertugliflozin at 25 mg, po by HPLC-radiocardiogram analysis; type: ADME, organism-based; details: in vivo
[5] = system: Plasma; experiment: Drug level in beagle dog plasma treated with [14C]-ertugliflozin at 10 mg/kg, po; type: ADME, organism-based, Canis lupus familiaris; set-up: dose 10 mg/kg, route oral; details: in vivo
[6] = system: Plasma; experiment: Drug metabolism in healthy human plasma treated with [14C]-ertugliflozin at 25 mg, po by HPLC-radiocardiogram analysis; type: ADME, organism-based; details: in vivo
[7] = Drug excretion in healthy human urine treated with [14C]-ertugliflozin at 25 mg, po by HPLC-radiocardiogram analysis; type: ADME, organism-based; details: in vivo
[8] = Drug level in bile duct-cannulated dog bile treated with [14C]-ertugliflozin at 10 mg/kg, po; type: ADME, organism-based, Canis lupus familiaris; set-up: dose 10 mg/kg, route oral; details: in vivo
[9] = system: Liver microsome; experiment: Metabolic stability in human liver microsomes assessed as retention time at 10 uM by HPLC analysis; details: in vitro
[10] = system: Plasma; experiment: Drug metabolism in Sprague-Dawley rat plasma assessed as ertugliflozin-3-O-beta-glucuronide level at 25 mg/kg, po; type: ADME, organism-based; set-up: dose 25 mg/kg, route oral; details: in vivo
[11] = system: Plasma; experiment: Drug metabolism in Sprague-Dawley rat plasma assessed as ertugliflozin-4-O-beta-glucuronide level at 25 mg/kg, po; type: ADME, organism-based; set-up: dose 25 mg/kg, route oral; details: in vivo
[12] = system: Plasma; experiment: Drug metabolism in beagle dog plasma assessed as ertugliflozin-4-O-beta-glucuronide level at 10 mg/kg, po; type: ADME, organism-based, Canis lupus familiaris; set-up: dose 10 mg/kg, route oral; details: in vivo
[13] = system: Plasma; experiment: Drug metabolism in beagle dog plasma assessed as ertugliflozin-3-O-beta-glucuronide level at 10 mg/kg, po; type: ADME, organism-based, Canis lupus familiaris; set-up: dose 10 mg/kg, route oral; details: in vivo
[14] = Drug recovery in beagle dog feces assessed as ertugliflozin-4-O-beta-glucuronide level at 10 mg/kg, po; type: ADME, organism-based, Canis lupus familiaris; set-up: dose 10 mg/kg, route oral; details: in vivo
[15] = Drug recovery in Sprague-Dawley rat feces treated with [14C]-ertugliflozin at 25 mg/kg, po; type: ADME, organism-based; set-up: dose 25 mg/kg, route oral; details: in vivo
[16] = Drug excretion in healthy human feces treated with [14C]-ertugliflozin at 25 mg, po by HPLC-radiocardiogram analysis; type: ADME, organism-based; details: in vivo
[17] = Drug recovery in beagle dog feces treated with [14C]-ertugliflozin at 10 mg/kg, po; type: ADME, organism-based, Canis lupus familiaris; set-up: dose 10 mg/kg, route oral; details: in vivo
[18] = Drug metabolism in healthy human plasma at 25 mg, po by HPLC-radiocardiogram analysis; type: ADME, organism-based; details: read-out: Drug metabolism
[19] = Total drug excretion in healthy human at 25 mg, po by HPLC-radiocardiogram analysis; type: ADME, organism-based; details: in vivo, read-out: Drug excretion
[20] = Drug level in bile duct-cannulated dog bile at 10 mg/kg, po; type: ADME, organism-based, Canis lupus familiaris; set-up: dose 10 mg/kg, route oral; details: read-out: Drug uptake
[21] = Terminal half life in healthy human at 25 mg, po; type: ADME, organism-based; details: in vivo, read-out: beta t1/2 (converted)
[22] = AUC (0 to last) in healthy human at 25 mg, po; type: ADME, organism-based; set-up: dose 25 mg, time 0 - last, route oral; details: plasma
[23] = Cmax in healthy human at 25 mg, po; type: ADME, organism-based; set-up: dose 25 mg, route oral; details: in vivo
[24] = Oral bioavailability in Sprague-Dawley rat at 2 mg/kg; type: ADME, organism-based; details: in vivo
[25] = Terminal elimination half life in human at 0.5 to 300 mg, po; type: ADME, organism-based; details: in vivo, read-out: beta t1/2 (converted)
[26] = Tmax in healthy human at 25 mg, po; type: ADME, organism-based; details: in vivo
[27] = Oral bioavailability in beagle dog at 2 mg/kg; type: ADME, organism-based, Canis lupus familiaris; details: in vivo
[28] = Drug level in bile duct-cannulated rat bile at 25 mg/kg, po; type: ADME, organism-based; set-up: dose 25 mg/kg, route oral; details: read-out: Drug uptake
[29] = system: Homo sapiens; experiment: AUC (0 to infinity) in healthy human at 25 mg, po; type: ADME, organism-based, Plasma; set-up: dose 25 mg, time infinity, route oral; details: in vivo

Row | SMILES | Drug metabolism [1] | Retention_time [3] | Drug excretion [4] | Drug metabolism [5] | Drug metabolism [6] | Drug excretion [7] | Retention_time [9] | Drug excretion [16] | Drug recovery [17] | also measured
1 | CCOc1ccc(Cc2cc([C@]34OC[C@](CO)(O3)[C@@H](O)[C@H](O[C@@H]3O[C@H](C(=O)O)[C@@H](O)[C@H](O)[C@H]3O)[C@H]4O)ccc2Cl)cc1 | metabolite_detected | 34.3 min | 31.7% | metabolite_detected | 24.1% | 31.7% | – | – | – | Drug uptake [2]: 16.5%; Drug uptake [8]: 39.2%
2 | CCO[14c]1[14cH][14cH][14c](Cc2cc([C@]34OC[C@](CO)(O3)[C@@H](O)[C@H](O)[C@H]4O)ccc2Cl)[14cH][14cH]1.O=C1CC[C@@H](C(=O)O)N1 | – | – | – | – | – | – | 36.4 min | – | – | Drug metabolism [10]: metabolite_detected; Drug metabolism [11]: metabolite_detected; Drug metabolism [12]: metabolite_detected; Drug metabolism [13]: metabolite_detected; Drug recovery [14]: metabolite_not_detected
3 | OC[C@@]12CO[C@@](c3ccc(Cl)c(Cc4ccc(O)cc4)c3)(O1)[C@H](O)[C@@H](O)[C@@H]2O | – | 27.2 min | 1.4% | – | 1.3% | 0.4% | – | 1% | 8.7% | Drug recovery [15]: 26.7%
4 | CCOc1ccc(Cc2cc([C@]34OC[C@](CO)(O3)[C@@H](O)[C@H](O)[C@H]4O[C@@H]3O[C@H](C(=O)O)[C@@H](O)[C@H](O)[C@H]3O)ccc2Cl)cc1 | metabolite_detected | 29.4 min | 5.7% | metabolite_detected | 12.2% | 5.7% | – | – | – | –

Continued, in another order:

Row | Drug metabolism [1] | Retention_time [3] | Drug excretion [4] | Drug metabolism [5] | Drug metabolism [6] | Drug excretion [7] | Retention_time [9] | Drug excretion [16] | Drug recovery [17] | SMILES | also measured
5 | – | 27.9 min | 2.4% | – | 2.5% | 0.7% | – | 1.7% | 7.1% | CCOc1ccc(C(O)c2cc([C@]34OC[C@](CO)(O3)[C@@H](O)[C@H](O)[C@H]4O)ccc2Cl)cc1 (mixture of isomers) | –
6 | – | – | – | – | – | – | 36.4 min | – | – | CCOc1ccc(Cc2cc([C@]34OC[C@](CO)(O3)[C@@H](O)[C@H](O)[C@H]4O)ccc2Cl)cc1 [ERTUGLIFLOZIN] | metabolised [18]: 49.9%; dose excreted [19]: 35.3%; dose excreted [20]: 9.6%; half-life [21]: 16.9 h; AUC(0-t) [22]: 2790 ng·h/mL; Cmax [23]: 490 ng/mL; bioavailability [24]: 69%; half-life [25]: 11 h; Tmax [26]: 1 h; bioavailability [27]: 94%; dose excreted [28]: 2.4%; AUC [29]: 2800 ng·h/mL
